Literature values in patent US11793769B2, “Device with compositions for delivery to the lungs, the oral mucosa and the brain” (priority 2014, dated 2023).

Tests used:
[1] = molecular target: cannabinoid type II receptor (CB2) (Homo sapiens, UniProt P34972); conditions: compared with CB1
[2] = test system: paclitaxel-induced neuropathic pain; conditions: without affecting the efficacy of the chemotherapy
[3] = test system: animal models of anxiety and depression; conditions: in vivo

cannabinoid type II receptor (CB2), sequence (P34972 whole entry, species assumed): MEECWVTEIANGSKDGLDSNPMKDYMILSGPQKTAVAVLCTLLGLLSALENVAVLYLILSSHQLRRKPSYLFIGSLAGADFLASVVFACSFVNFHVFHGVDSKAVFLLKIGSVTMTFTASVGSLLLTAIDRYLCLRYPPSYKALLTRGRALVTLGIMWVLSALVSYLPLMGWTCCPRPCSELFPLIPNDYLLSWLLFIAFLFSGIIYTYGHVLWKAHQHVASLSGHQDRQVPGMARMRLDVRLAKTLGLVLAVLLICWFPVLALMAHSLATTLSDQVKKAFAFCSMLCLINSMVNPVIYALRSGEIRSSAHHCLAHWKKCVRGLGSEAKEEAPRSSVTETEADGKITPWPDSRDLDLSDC

C=C(C)[C@@H]1CCC(C)=C[C@H]1c1c(O)cc(CCCCC)cc1O [CBD, cannabidiol]
affinity to CB2 [1]: higher affinity
effect on paclitaxel-induced neuropathic pain [2]: inhibits paclitaxel-induced neuropathic pain
effects in animal models of anxiety and depression [3]: both anti-anxiety and antidepressant effects
